Test results taken from publication PMC5573151 (Clinical cancer research : an official journal of the …, 2009).

Molecular target: HLA-A2.1 (Homo sapiens, UniProt P04439, D140Y/D185E/D98H/E176V/E277Q/G131W/G231S/I119V/I121R/I166T/I218V/L300P/L318F/N151K/N90K/P208A/P217A/Q86G/Q94H/R138H/R169H/T345S)
Assay: MHC stabilization
Assay type: binding
Conditions: T2 cell assay

Sequence | Binding to A2.1 (in words)
KLLPLPSAI [SIM2(25)] | strongly bind
SLYDSCYQI [SIM2(199)] | strongly bind
